{
  "source": "patent US20250276955A1",
  "about": "“CORONAVIRUS MAIN PROTEASE INHIBITORS AND METHODS USING SAME” (Baylor College of Medicine, priority 2021, published 2025)",
  "key": {"[1]": {"biological_target": "T1, renin (Homo sapiens, UniProt P00797)", "T1 construct": "purchased BPS Bioscience 80211", "T1 sequence (P00797 67-406)": "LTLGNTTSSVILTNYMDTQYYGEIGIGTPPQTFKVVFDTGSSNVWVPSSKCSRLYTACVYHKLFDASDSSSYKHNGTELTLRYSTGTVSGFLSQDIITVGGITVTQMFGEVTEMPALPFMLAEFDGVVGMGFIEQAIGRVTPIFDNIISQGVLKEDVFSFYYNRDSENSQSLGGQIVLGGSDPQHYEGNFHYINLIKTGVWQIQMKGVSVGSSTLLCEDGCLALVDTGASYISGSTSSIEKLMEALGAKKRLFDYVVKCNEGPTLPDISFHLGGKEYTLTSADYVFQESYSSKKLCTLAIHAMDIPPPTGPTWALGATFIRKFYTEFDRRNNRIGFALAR", "assay": "Renin assay", "assay_type": "biochemical", "conditions": "read-out: estimated Kiapp, renin", "method": "(§1) A kit from BPS Bioscience (#80211) was used with adjustments to the manufacturer's protocol as follows: The reaction was run at RT in black 96 half-area plates in a total reaction volume of 50 uL containing 0.01% Tween-20. Instead of measuring endpoints at 30 min the increase in fluorescence (Ex 490 nm, Em 520 nm) per second (RFU/s) was obtained from linear progress curves over 10 min. Fractional activities were calculated from reactions with no inhibitors. Aliskiren was used as a positive control."}, "[2]": {"assay": "Apparent solubility in PBS buffer", "conditions": "PBS buffer with 2% DMSO, aqueous buffer, kinetic from dmso stock"}, "[3]": {"assay": "Plasma stability assay, human plasma", "assay_type": "in vitro ADME", "conditions": "10 μM, 37° C., after 2 h incubation", "method": "Compound CDD-1713 and CDD-1976 were incubated in human and mouse plasma respectively at a concentration of 10 μM in duplicate (n=2) at 37° C. At time-points of 0, 30, 60 and 120 min, 15 μL of sample were taken out and the reactions terminated by adding 75 μL of ice-cold methanol. The reaction mixtures were then vortexed for 30 sec and centrifuged at rcf 15,000 for 15 min. Following centrifugation, 3 μL of the supernatant was analyzed using UHPLC-Q Exactive Orbitrap MS. The percentage of test compound remaining at the individual time points relative to the 0 min sample was then determined."}, "[4]": {"biological_target": "T2, HOVPro-Gi.1 (Norovirus, UniProt Q83883)", "T2 construct": "HOVPro-Gi.1", "T2 sequence (Q83883 1101-1281)": "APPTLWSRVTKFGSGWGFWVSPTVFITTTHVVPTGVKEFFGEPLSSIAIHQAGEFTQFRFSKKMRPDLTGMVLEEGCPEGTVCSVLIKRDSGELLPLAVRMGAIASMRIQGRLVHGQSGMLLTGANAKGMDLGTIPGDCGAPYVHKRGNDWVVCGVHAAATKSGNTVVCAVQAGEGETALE", "assay": "Thermal shift, HOVPro-Gi.1", "assay_type": "binding"}, "[5]": {"system": "HepG2 cells", "assay": "HepG2 cell uptake assay", "assay_type": "in vitro ADME", "conditions": "10 μM, 2 hours", "method": "The HepG2 cells maintained in DMEM (containing 1 g/L glucose, 10% fetal bovine serum and 1% penicillin/streptomycin) were seeded in a 12-well plate (a final density of 5×10^5/well) for cell uptake assay and 96-well plate for cytotoxicity assay (a final density of 5×10^4/well). The plate was incubated at 37° C. for 24 h.\nThe cells in 12-well plate were treated with CDD-1713 or CDD-1976 (final concentration: 10 μM). The plate was incubated at 37° C. for another 2 hr. The medium in the plate was decanted and the cells were rinsed with 1 mL of 1×DPBS for three times. 0.5 mL of 0.25% Trypsin was added into each well and incubated for 3.5 min (at 37° C.). 1 mL of complete medium was added into each well to quench the reaction. After spinning at 350×g for 5 min, the cell pellet was reconstituted in MeOH/H2O (v/v 1/1) and CDD-1713 or CDD-1976 was extracted from 100 μL of the resulting mixture with 100 μL of ice-cold methanol. The mixtures were centrifuged at rcf 15,000 for 15 min. Three μL of the supernatant was analyzed by UHPLC-Q Exactive Orbitrap MS (Thermo Fisher Scientific, USA) equipped with 50 mm×4.6 mm column (XDB C-18, Agilent Technologies, USA). The column temperature was set at 40° C. Ultra-pure nitrogen was applied as the sheath (45 arbitrary unit), auxiliary (10 arbitrary unit), sweep (1.0 arbitrary unit) and the collision gas. […]"}, "[6]": {"system": "HOVPro-Gii.4", "assay": "Thermal shift, HOVPro-Gii.4", "assay_type": "binding"}, "[7]": {"system": "293T", "assay": "293T relative cell viability", "conditions": "day 3, 10 μM"}, "[8]": {"biological_target": "T3, human thrombin (Homo sapiens, UniProt P00734)", "T3 construct": "purchased Sigma-Aldrich MAK243", "assay": "Thrombin fluorescence assay", "assay_type": "biochemical", "conditions": "fluorescence assay"}, "[9]": {"biological_target": "SARS-COV-2 M^pro (authentic N- and C-termini) (Severe acute respiratory syndrome coronavirus 2, UniProt P0DTD1)", "assay": "biochemical", "assay_type": "biochemical"}, "[10]": {"biological_target": "T4, Human Cathepsin B (Homo sapiens, UniProt P07858)", "T4 construct": "purchased BPS Bioscience 79590", "assay": "Cathepsin B assay", "assay_type": "biochemical", "method": "as §1, with “(#79590)” for “(#80211)”, “The activated enzyme was diluted 250-fold just before use, and the” for “The”, “60” for “30”, “360” for “490”, “460” for “520”, “E-64” for “Aliskiren”"}},
  "note": "Read-outs that look alike come from different tables or passages of the source.",
  "data": [
    {"molecule": "COc1cc(-c2cccc3[nH]ncc23)cc(C=O)c1OCC(=O)N(C)C", "note": "[CDD-1713, 2-(2-formyl-4-(1H-indazol-4-yl)-6-methoxyphenoxy)-N,N-dimethylacetamide]", "values": [
      {"measurement": "Ki", "setting": "[1]", "result": 53000, "unit": "nM"},
      {"measurement": "solubility", "setting": "[2]", "result": 157, "unit": "µM"},
      {"measurement": "compound remaining in human plasma", "setting": "[3]", "result": 80, "unit": "%"},
      {"measurement": "ΔTm of HOVPro-Gi.1 at 50 μM compound conc.", "setting": "[4]", "result": "−0.09", "unit": "°C"},
      {"measurement": "cell permeability in HepG2 uptake assay (in words)", "setting": "[5]", "result": "moderate cell permeability"},
      {"measurement": "ΔTm of HOVPro-Gii.4 at 50 μM compound conc.", "setting": "[6]", "result": "−0.73", "unit": "°C"},
      {"measurement": "293T day 3 relative cell viability (% inhibition at 10 μM)", "setting": "[7]", "result": "None"},
      {"measurement": "Thrombin inhibition", "setting": "[8]", "result": "None"},
      {"measurement": "thrombin inhibition (in words)", "setting": "[8]", "result": "No inhibition"},
      {"measurement": "Ki", "setting": "[9]; 25 nM enzyme, 15 μM fluorescent peptide, Morrison equation, Inactive = less than 50% inhibition at 25 μM compound, read-out: M^pro Ki", "result": "64.8 ± 4.9", "unit": "nM"},
      {"measurement": "Ki", "setting": "[9]; Morrison equation, read-out: apparent Ki against M^pro", "result": 64.8, "unit": "nM"},
      {"measurement": "Ki", "setting": "[9]; Table 5, read-out: Ki,app", "result": 64.8, "unit": "nM"},
      {"measurement": "Ki", "setting": "[9]; read-out: Ki, app towards SARS-CoV-2 M^pro, athentic termini, authentic termini", "result": 64.8, "unit": "nM"},
      {"measurement": "Human Cathepsin B, Fractional Remaining Activity", "setting": "[10]", "result": 0.97}
    ]}
  ]
}
